Earlier results in US20090054377A1, “COMPOSITIONS AND METHODS FOR SMOKING CESSATION” (MODUS BIOLOGICAL MEMBRANES LTD., priority 2004, published 2009).
Read-outs that look alike come from different tables or passages of the source.

What was measured:
smokers [1] = settings: in vivo
smokers [2] = test system: smokers
[3] = other smoking cessation remedies

## CC(NC(C)(C)C)C(=O)c1cccc(Cl)c1 (stereo not shown) [Bupropion (Zyban), Bupropion]
Smokers [1]
  Adverse Events: Anxiety: 8%
  Adverse Events: Constipation: 8%
  Adverse Events: Diarrhea: 4%
  Adverse Events: Dizziness: 8-10%
  Adverse Events: Dream abnormality: 5%
  Adverse Events: Dry Mouth: 1-11%
  Adverse Events: Insomnia: 31-40%
  Adverse Events: Rhinitis: 12%
  Adverse Events: Seizures: 0.4%
Smokers [2]; 300 mg/day
  % Quitters: 25%
  Absolute quit rate (quit rate − quit rate of placebo): 11
Smokers [2]; [3]
  % Quitters: 22.5%
  Absolute quit rate (quit rate − quit rate of placebo): 13.5
